# Measurements reported in US20020172935A1, “Methods of screening for compounds that modulate blood vessel formation from circulating endothelial cell precursors” (priority 2000, published 2002).
# System: murine allantois
# Test: Allantois explant culture: de novo vascular development, immunolabeling and confocal analysis
# Format: cell-based, mouse
# Protocol: Allantoides of 7.5dpc embryos were excised, washed in EPBS (4° C.) and then pipetted into Nunc 4 chambered culture slides (Fisher Scientific Co., Suwanee, Ga.) containing 0.4 ml of DMEM, 10% Fetal Bovine Serum, and 1% Penicillin Streptomycin. Explants were cultured at 37° C. in a 5% CO2 incubator for 12-20 hours and then fixed and permeabilized as described above. The explants were blocked in 3% BSA/PBSA 12-18 hrs, exposed to PECAM antibodies (1.5 hours, 26° C.), washed 3×40 minutes in PBSA, incubated in appropriate secondary antibodies (1.5 hours, 26° C.), washed in PBSA 3×30 minutes, and mounted as described above.
# Embryos were analyzed using a Bio-Rad MRC 1024 Laser Scanning Confocal Microscope (Bio-Rad Microscopy Division, Cambridge, Mass.). Optical sectioning along the dorsoventral axis (Z-axis) was performed and the images collapsed into a single focal plane using manufacturer's software. Differential Interference Contrast (DIC) images were generated using a research grade Leitz™ photomicroscope equipped with a Photometrics™ (Tucson, Ariz.) Quantix CCD camera. Images were processed using NIH Image 1.62 software (NIH, Bethesda, Md.) and Adobe Photoshop 5.0 (Adobe Systems, Inc., San Jose, Calif.). […]
substance,measurement,setting,value
VEGF,vascular pattern (PECAM immunolabeling),7.0 dpc allantois cultured 24 hours with VEGF 2 μg/ml (FIG. 3c),overall sinusoidal vascular pattern
same,vascular phenotype,"allantois cultures, recombinant VEGF 2 μg/ml, 24 hr",hyperfused vascular phenotype
